Test system: lung gene expression
Test: RNA sequencing of lung tissue (BLM/EL244 vs BLM)
Assay type: in vivo, mouse
Method: RNA quality was assessed using an Agilent TapeStation 4150 with the High Sensitivity […] ScreenTape (Agilent), according to the manufacturer’s protocols. For library preparation, the QuantSeq 3’mRNA-Seq Library Prep Kit (Lexogen) was used according to manufacturer’s instructions. Briefly, 500 ng of RNA from each sample was used for first-strand synthesis, followed by RNA template removal, and second-strand synthesis initiated by random primers. In-line barcodes were introduced at this step, and this was followed by magnetic bead-based purification. The resulting libraries were amplified for 15 cycles and re-purified, with quantity and quality assessed on a Qubit 4 Fluorometer with the Invitrogen Qubit dsDNA HS Assay and an Agilent Tapestation 4150 with the High Sensitivity D1000 assay kit, respectively. The quantified libraries were pooled equimolarly; 50ng of total library mix was used for Adapter Conversion PCR Amplification using the Universal Library Conversion Kit (App-A), Version: V1.0 (MGI Tech Co., Ltd.), according to the manufacturer’s instructions.
The quantity and quality of the purified adapter conversion PCR (AC-PCR) product were evaluated on a Qubit 4 Fluorometer with the Invitrogen Qubit dsDNA HS Assay and on an Agilent Tapestation 4150 with the High Sensitivity D1000 assay kit, respectively. This was followed by DNA denaturation, Single-Strand Circularisation, Enzymatic Digestion, Enzymatic Digestion Product Cleanup and Quality Control steps on 1 pmol of AC-PCR product, according to the Universal Library Conversion Kit (App-A) User Manual (Version: A3).
Finally, 60 fmol of ssCirDNA were used for DNB preparation and sequencing on a DNBSEQ-G400 platform at the BSRC Alexander Fleming Genomics Facility, using a G400 App-A FCS SE100 High-throughput Sequencing Set (MGI Tech Co., Ltd.), according to the manufacturer’s instructions.
Alignment of the FASTQ files was performed against the mouse genome build mm10 using a custom Bash script.[143] Read counting on the 3′ UTRs and differential expression analysis were conducted using the metaseqR2 bioconductor package.[144] Genes corresponding to the following biotypes were excluded: polymorphic_pseudogene, processed_transcript, pseudogene, IG_V_pseudogene, misc_RNA, IG_C_gene, IG_J_gene, IG_D_gene, IG_LV_gene, TR_V_gene, TR_V_pseudogene, TEC, and processed_pseudogene. Gene counts were normalized with DESEQ[145] through metaseqR2. Genes with more than 10 counts in at least 50% of the samples were kept for further processing. For differential expression analysis, the PANDORA algorithm[146] was used to estimate a meta p-value integrating the results from the DESEQ, DESEQ2,[147] edgeR,[148] limma,[149] NBPSeq,[150] and NOISeq[151] algorithms. All additional parameters were set to default values.
Pathway enrichment analysis was performed for the Gene Ontology Biological process (BP) and Molecular Function (MF) terms through GeneCodis 4.[152] The volcano plots, scatterplots, Venn diagrams, and dot plots were generated using the ggplot2 Bioconductor package.

O=C1NC(=O)C(Cc2ccc(OCCC3CCN(C(=O)OCc4cc(Cl)cc(Cl)c4)CC3)cc2)S1 (stereo not drawn) [EL244, 3,5-dichlorobenzyl 4-(2-(4-((2,4-dioxothiazolidin-5-yl)methyl)phenoxy)ethyl)piperidine-1-carboxylate]
Igfbp3 log2 nFC BLM/EL244 vs BLM (DEG Igfbp3, nFC: normalised fold change): 1.75
Igfbp6 log2 nFC BLM/EL244 vs BLM (DEG Igfbp6, nFC: normalised fold change): 1.68
Il6ra log2 nFC BLM/EL244 vs BLM (DEG Il6ra, nFC: normalised fold change): 0.84
log2 nFC BLM/EL244 vs BLM (DEG Ildr2): -1.32
Inmt log2 nFC BLM/EL244 vs BLM (DEG Inmt, nFC: normalised fold change): 1.34
Iqca log2 nFC BLM/EL244 vs BLM (DEG Iqca, nFC: normalised fold change): 0.87
log2 nFC BLM/EL244 vs BLM (DEG Iqgap3): -2.41
Itga2b log2 nFC BLM/EL244 vs BLM (DEG Itga2b, nFC: normalised fold change): 1.10
Itga8 log2 nFC BLM/EL244 vs BLM (DEG Itga8, nFC: normalised fold change): 0.88
log2 nFC BLM/EL244 vs BLM (DEG Itm2a): -1.25
Jdp2 log2 nFC BLM/EL244 vs BLM (DEG Jdp2, nFC: normalised fold change): 0.71
Kcne2 log2 nFC BLM/EL244 vs BLM (DEG Kcne2, nFC: normalised fold change): 1.32
log2 nFC BLM/EL244 vs BLM (DEG Kcnn4): -1.27
log2 nFC BLM/EL244 vs BLM (DEG Kdelr3): -1.25
log2 nFC BLM/EL244 vs BLM (DEG Kif14): -1.56
log2 nFC BLM/EL244 vs BLM (DEG Kif20a): -2.52
Klf3 log2 nFC BLM/EL244 vs BLM (DEG Klf3, nFC: normalised fold change): 0.69
Klf4 log2 nFC BLM/EL244 vs BLM (DEG Klf4, nFC: normalised fold change): 0.72
Klf9 log2 nFC BLM/EL244 vs BLM (DEG Klf9, nFC: normalised fold change): 0.85
Klf15 log2 nFC BLM/EL244 vs BLM (DEG Klf15, nFC: normalised fold change): 1.42
Klrc1 log2 nFC BLM/EL244 vs BLM (DEG Klrc1, nFC: normalised fold change): 1.38
Kndc1 log2 nFC BLM/EL244 vs BLM (DEG Kndc1, nFC: normalised fold change): 1.05
log2 nFC BLM/EL244 vs BLM (DEG Knstrn): -2.52
log2 nFC BLM/EL244 vs BLM (DEG Kntc1): -1.39
Krt79 log2 nFC BLM/EL244 vs BLM (DEG Krt79, nFC: normalised fold change): 1.75
log2 nFC BLM/EL244 vs BLM (DEG Lama1): -2.43
Ldb3 log2 nFC BLM/EL244 vs BLM (DEG Ldb3, nFC: normalised fold change): 1.52
Lncpint log2 nFC BLM/EL244 vs BLM (DEG Lncpint, nFC: normalised fold change): 1.06
Lrat log2 nFC BLM/EL244 vs BLM (DEG Lrat, nFC: normalised fold change): 1.15
Lrrc74b log2 nFC BLM/EL244 vs BLM (DEG Lrrc74b, nFC: normalised fold change): 1.02
log2 nFC BLM/EL244 vs BLM (DEG Ltbp2): -1.44
Ltbp4 log2 nFC BLM/EL244 vs BLM (DEG Ltbp4, nFC: normalised fold change): 0.81
log2 nFC BLM/EL244 vs BLM (DEG Lum): -1.32
Lyve1 log2 nFC BLM/EL244 vs BLM (DEG Lyve1, nFC: normalised fold change): 0.96
Map3k6 log2 nFC BLM/EL244 vs BLM (DEG Map3k6, nFC: normalised fold change): 0.95
Mapt log2 nFC BLM/EL244 vs BLM (DEG Mapt, nFC: normalised fold change): 0.89
log2 nFC BLM/EL244 vs BLM (DEG Mark1): -1.23
log2 nFC BLM/EL244 vs BLM (DEG Matk): -1.42
Mb log2 nFC BLM/EL244 vs BLM (DEG Mb, nFC: normalised fold change): 2.27
Mcf2l log2 nFC BLM/EL244 vs BLM (DEG Mcf2l, nFC: normalised fold change): 0.95
log2 nFC BLM/EL244 vs BLM (DEG Mcm5): -1.33
log2 nFC BLM/EL244 vs BLM (DEG Mdk): -1.34
Mettl7a1 log2 nFC BLM/EL244 vs BLM (DEG Mettl7a1, nFC: normalised fold change): 0.80
Mir29c log2 nFC BLM/EL244 vs BLM (DEG Mir29c, nFC: normalised fold change): 0.89
log2 nFC BLM/EL244 vs BLM (DEG Mir147): -1.44
Mir6899 log2 nFC BLM/EL244 vs BLM (DEG Mir6899, nFC: normalised fold change): 0.84
Mir6979 log2 nFC BLM/EL244 vs BLM (DEG Mir6979, nFC: normalised fold change): 1.18
log2 nFC BLM/EL244 vs BLM (DEG Mis18bp1): -1.46
Mmp9 log2 nFC BLM/EL244 vs BLM (DEG Mmp9, nFC: normalised fold change): 1.20
log2 nFC BLM/EL244 vs BLM (DEG Mmp12): -2.48
log2 nFC BLM/EL244 vs BLM (DEG Mmp14): -1.31
Mpp3 log2 nFC BLM/EL244 vs BLM (DEG Mpp3, nFC: normalised fold change): 1.65
log2 nFC BLM/EL244 vs BLM (DEG Ms4a7): -1.49
Ms4a4d log2 nFC BLM/EL244 vs BLM (DEG Ms4a4d, nFC: normalised fold change): 1.15
log2 nFC BLM/EL244 vs BLM (DEG Msr1): -1.44
Mybpc3 log2 nFC BLM/EL244 vs BLM (DEG Mybpc3, nFC: normalised fold change): 2.06
Mybphl log2 nFC BLM/EL244 vs BLM (DEG Mybphl, nFC: normalised fold change): 2.33

From publication PMC13198257, “An aerosolized dual-action autotaxin inhibitor-PPARγ agonist for the treatment of pulmonary fibrosis” (Cell Reports Medicine, 2026)
